Source: ChEMBL document CHEMBL1201862, “PubChem BioAssay data set” (2004)
The source made the active and inactive calls.

Experiments:
Streptokinase A = biological target: T1, Streptokinase A (Streptococcus pyogenes serotype M1, UniProt P10520); assay: S. pyogenes streptokinase expression inhibitors, potency, dose response, plasminogen activation absorbance, OD405 (AID 1914); format: functional, Streptococcus pyogenes M1 GAS;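 note: secreted streptokinase activity via plasminogen activation per viability signal from cell pellet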
T1 sequence (P10520 whole entry): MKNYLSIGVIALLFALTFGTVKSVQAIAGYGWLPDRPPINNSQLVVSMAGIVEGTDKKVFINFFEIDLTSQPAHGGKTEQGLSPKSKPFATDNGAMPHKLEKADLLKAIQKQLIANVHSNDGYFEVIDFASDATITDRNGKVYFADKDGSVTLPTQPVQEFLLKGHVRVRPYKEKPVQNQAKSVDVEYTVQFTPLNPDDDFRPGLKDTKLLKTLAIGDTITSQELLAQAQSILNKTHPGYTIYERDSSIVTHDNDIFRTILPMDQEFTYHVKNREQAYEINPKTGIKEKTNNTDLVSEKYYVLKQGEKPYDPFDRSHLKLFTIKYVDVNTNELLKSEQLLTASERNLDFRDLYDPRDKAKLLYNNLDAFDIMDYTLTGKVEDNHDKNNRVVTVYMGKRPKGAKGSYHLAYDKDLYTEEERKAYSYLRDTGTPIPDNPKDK

Streptococcus [1] = assay: Group A Streptococcus viability loss, dose response, counter-screen for streptokinase expression inhibitor project, luminescence, BacTiterGlo (AID 1915); format: functional, organism-based;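 note: potency for reduction of bacterial viability or growth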
[2] = tested on: Streptococcus sp. 'group A'; assay: growth inhibition of control SK(-) GAS strain, dose response, counter-screen for streptokinase expression inhibitor project, luminescence, kanamycin, BacTiterGlo, confirmation (AID 1900); format: functional, organism-based
Streptococcus [3] = assay: Luminescence Microorganism-Based Dose Response Follow up to Identify Compounds Cytotoxic to Streptococcus. [Related pubchem assays: 1677 (Project Summary), 1915, 1914, 1902 (Retest at Dose), 1900 (Counter Screen), 1662 (Primary HTS)]; format: functional, organism-based
[4] = polyadenylation inhibitors in yeast reporter, dose response, luminescence, S. cerevisiae SKY197-pL101 (AID 2525); format: functional, cell-based
[5] = biological target: Eukaryotic translation initiation factor 4H (Homo sapiens, UniProt Q15056); assay: human eIF4H binding inhibitors, primary screen, translation initiation inhibitor project, biochemical, uHTS, fluorescence polarization (AID 2012)
[6] = biological target: Polyadenylate-binding protein 1 (Homo sapiens, UniProt P11940); assay: PABP poly(A) RNA binding inhibitors, primary screen, biochemical, fluorescence polarization, uHTS (AID 2014)
Cytochrome P450 2C9 = Cytochrome P450 2C9 (Homo sapiens, UniProt P11712); details: Potency
[7] = HeLa cell cytotoxicity, dose response, cytotoxicity control for MgcRacGAP inhibitor project (AID 624300); format: functional
Insulin-degrading enzyme = Insulin-degrading enzyme (Homo sapiens, UniProt P14735); assay: Dose Response: Fluorescence polarization-based cell-based high throughput dose response assay for inhibitors of insulin-degrading enzyme (IDE). [Related pubchem assays: 434962 (Primary screen (IDE inhibitors in singlicate)), 449730 (Counterscreen (Cytotoxicity in triplicate)), 435028 (Confirmation (IDE inhibitors in triplicate)), 434984 (Summary …; format: functional
[8] = Counterscreen for IDE inhibitors: Luminescence-based cell-based high throughput dose response assay to identify compounds that are cytotoxic to HEK cells. [Related pubchem assays: 434962 (Primary screen (IDE inhibitors in singlicate)), 449730 (Counterscreen (Cytotoxicity in triplicate)), 435028 (Confirmation (IDE inhibitors in triplicate)) …; format: functional; details: HEK293
[9] = biological target: T2, Rac GTPase-activating protein 1 (Homo sapiens, UniProt Q9H0H5); assay: MgcRacGAP GTPase-activating activity inhibitors, confirmation, biochemical, ADP Hunter fluorescence, primary and confirmatory (AID 624330); format: functional
T2 sequence (Q9H0H5 whole entry): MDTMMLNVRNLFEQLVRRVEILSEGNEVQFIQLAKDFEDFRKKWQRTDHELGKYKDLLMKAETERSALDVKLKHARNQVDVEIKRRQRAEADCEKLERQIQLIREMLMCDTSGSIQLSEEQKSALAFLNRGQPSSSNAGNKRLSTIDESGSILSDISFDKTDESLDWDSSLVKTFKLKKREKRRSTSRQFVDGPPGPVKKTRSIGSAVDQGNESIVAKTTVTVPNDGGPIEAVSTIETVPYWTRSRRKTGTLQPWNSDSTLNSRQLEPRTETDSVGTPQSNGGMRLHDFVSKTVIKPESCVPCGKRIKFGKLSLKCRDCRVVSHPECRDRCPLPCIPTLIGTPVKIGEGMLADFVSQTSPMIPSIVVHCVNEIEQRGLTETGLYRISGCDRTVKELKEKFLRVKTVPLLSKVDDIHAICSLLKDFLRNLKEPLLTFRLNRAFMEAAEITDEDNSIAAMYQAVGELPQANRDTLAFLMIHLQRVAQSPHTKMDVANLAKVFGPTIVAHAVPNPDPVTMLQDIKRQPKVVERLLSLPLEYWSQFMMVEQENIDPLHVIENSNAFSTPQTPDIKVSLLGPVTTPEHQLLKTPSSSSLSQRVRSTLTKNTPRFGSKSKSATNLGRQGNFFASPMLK

Cytochrome P450 2C9, sequence (P11712 whole entry): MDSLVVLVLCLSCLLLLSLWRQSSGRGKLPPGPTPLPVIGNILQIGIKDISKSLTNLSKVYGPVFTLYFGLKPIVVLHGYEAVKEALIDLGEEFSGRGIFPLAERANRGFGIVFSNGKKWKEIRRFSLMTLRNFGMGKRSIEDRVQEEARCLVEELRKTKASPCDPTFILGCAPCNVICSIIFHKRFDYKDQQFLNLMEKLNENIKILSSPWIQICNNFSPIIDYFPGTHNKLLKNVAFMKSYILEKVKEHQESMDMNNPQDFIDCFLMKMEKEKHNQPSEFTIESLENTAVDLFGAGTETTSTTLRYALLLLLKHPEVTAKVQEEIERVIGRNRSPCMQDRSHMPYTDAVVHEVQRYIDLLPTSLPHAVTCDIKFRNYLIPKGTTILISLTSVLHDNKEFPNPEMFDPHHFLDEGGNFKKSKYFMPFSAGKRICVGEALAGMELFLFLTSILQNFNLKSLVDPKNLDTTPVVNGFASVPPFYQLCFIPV
Polyadenylate-binding protein 1, sequence (P11940 whole entry): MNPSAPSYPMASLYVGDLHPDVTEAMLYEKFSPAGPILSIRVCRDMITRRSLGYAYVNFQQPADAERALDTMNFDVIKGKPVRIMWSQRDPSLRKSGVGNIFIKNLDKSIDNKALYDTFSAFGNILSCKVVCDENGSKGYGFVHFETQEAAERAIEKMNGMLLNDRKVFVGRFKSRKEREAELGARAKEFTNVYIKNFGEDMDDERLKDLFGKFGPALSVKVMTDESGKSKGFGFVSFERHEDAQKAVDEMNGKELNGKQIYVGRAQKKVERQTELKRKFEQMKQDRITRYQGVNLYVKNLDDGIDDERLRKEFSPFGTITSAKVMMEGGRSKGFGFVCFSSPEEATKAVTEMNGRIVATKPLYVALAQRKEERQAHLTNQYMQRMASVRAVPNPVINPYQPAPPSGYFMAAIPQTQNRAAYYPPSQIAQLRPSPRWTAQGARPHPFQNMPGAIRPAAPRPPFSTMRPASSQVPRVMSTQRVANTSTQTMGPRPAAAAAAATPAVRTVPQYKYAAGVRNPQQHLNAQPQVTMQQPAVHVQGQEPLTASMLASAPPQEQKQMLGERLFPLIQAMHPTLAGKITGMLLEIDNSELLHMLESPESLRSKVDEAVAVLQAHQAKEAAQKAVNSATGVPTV
Insulin-degrading enzyme, sequence (P14735 whole entry): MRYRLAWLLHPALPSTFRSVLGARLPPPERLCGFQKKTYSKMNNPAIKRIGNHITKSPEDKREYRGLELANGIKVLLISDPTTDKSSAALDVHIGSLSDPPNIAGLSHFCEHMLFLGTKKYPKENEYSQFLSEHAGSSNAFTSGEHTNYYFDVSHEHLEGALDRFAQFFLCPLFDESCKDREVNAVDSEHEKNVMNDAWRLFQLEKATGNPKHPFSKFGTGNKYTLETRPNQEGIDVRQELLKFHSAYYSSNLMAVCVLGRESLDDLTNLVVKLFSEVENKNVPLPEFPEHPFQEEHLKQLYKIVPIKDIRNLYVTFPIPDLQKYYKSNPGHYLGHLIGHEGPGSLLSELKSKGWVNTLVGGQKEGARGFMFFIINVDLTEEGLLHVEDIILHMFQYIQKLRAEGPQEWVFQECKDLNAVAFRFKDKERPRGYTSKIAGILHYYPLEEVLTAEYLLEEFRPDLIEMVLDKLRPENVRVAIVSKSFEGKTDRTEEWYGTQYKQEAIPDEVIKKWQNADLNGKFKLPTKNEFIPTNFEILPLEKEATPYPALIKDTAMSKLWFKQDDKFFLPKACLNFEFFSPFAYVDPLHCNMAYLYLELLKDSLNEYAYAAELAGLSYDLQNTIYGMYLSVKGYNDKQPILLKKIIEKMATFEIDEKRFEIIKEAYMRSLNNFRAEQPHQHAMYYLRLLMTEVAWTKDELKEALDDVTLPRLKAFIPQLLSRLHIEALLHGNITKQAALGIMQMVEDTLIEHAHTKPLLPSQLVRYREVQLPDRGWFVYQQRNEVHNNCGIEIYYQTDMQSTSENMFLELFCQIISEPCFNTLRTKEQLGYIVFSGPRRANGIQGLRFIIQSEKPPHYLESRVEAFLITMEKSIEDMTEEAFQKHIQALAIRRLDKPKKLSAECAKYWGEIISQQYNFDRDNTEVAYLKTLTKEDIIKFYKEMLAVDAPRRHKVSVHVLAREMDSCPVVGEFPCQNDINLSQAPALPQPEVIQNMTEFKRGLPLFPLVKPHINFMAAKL

With Cc1ccc(C(=O)n2c3ccccc3c3ccccc32)cc1 the EC50 (Streptokinase A) was 6.45 µM (active), the EC50 (Streptococcus [1]) was > 150 µM (not active) and the EC50 [2] was 21.6 µM (active). The EC50 (Streptococcus [3]) was > 500 µM (not active).
With Cc1ccc2[nH]c(/C(C#N)=C/c3ccc([N+](=O)[O-])o3)nc2c1 the EC50 [4] was 4.03 µM (active).
In the case of CCOc1ccc2nc(SCC(=O)NC(=O)NCc3ccco3)[nH]c2c1, the IC50 [5] is reported as 13.3 µM (active) and the IC50 [6] is reported as 62.3 µM (active).
In the case of CCCCCC[C@H]1C(=O)O[C@@H](C)[C@H](NC(=O)c2cccc(NC=O)c2O)C(=O)O[C@@H](C)[C@@H]1OC(=O)CC(C)C, the AC50 (Cytochrome P450 2C9) is reported as 31.6 µM (inconclusive).
For Cc1cc(/C=C2\SC(=S)NC2=O)cc(C)c1O, the CC50 [7] was 100 µM (active), the IC50 (Insulin-degrading enzyme) was > 56 µM (not active) and the IC50 [8] was > 55.7 µM (not active). The IC50 [9] was 25.8 µM (active).
